Data published in patent publication US8946478B2, “Benzamide derivative with anticancer activity and preparation method and use thereof” (Zhejiang Hisun Pharmaceutical Co., Ltd., priority 2010, dated 2015).

What was measured:
[1] = system: human breast cancer cell strain MCF-7; test: In vitro SRB tumor cell growth inhibition (GI50); type: cell-based; conditions: MCF-7 cells
Procedure: (§1) Human colon cancer cell strains (Colo205 and HCT-116), human breast cancer cell strains (MCF-7 and MDA-MB435), human lung cancer cell strains (A549, 95D and NCI460), human ovarian cancer cell strains (OVCAR-5, OVCAR-8, HO8910 and SKOV-3), human leukemia (HL-60 and K562), human prostate cancer (DU145 and BXPC-3), human uterine cancer (Hela), human pancreatic cancer (PANC-1), human hepatoma (HepG 2) were all obtained from ATCC. Colo205, HL-60, K562 cells were cultured in RPMI 1640 containing 2 mM/L glutamine, 10% FBS, 1.0 mM sodium pyruvate. HCT-116, MCF-7, A549, 95D, HO8910, NCI460, OVCAR-5, OVCAR-8, DU145, BXPC-3, Hela, PANC-1, HepG2 cells were cultured in DMEM containing 2 mM/L glutamine, 10% FBS. MDA-MB435 cells were cultured in L-15 containing 2 mM/L glutamine, 10% FBS. SKOV-3 cells were cultured in McCoy's containing 2 mM/L glutamine, 10% FBS. Colo205, HL-60 and K562 cells were seeded in 96-well plates, 150 μL/well and 8000 cells/well, and the 96-well plates were pre-incubated in an incubator at 37° C. with 5% CO2, 100% relative humidity for 24 hours. HCT-116, MCF-7, NCI460, OVCAR-5, OVCAR-8, Hela, HepG 2 and MDA-MB435 cells were seeded in 96-well plates, 5000 cells/well; A549, 95D, HO8910, DU145, BXPC-3, PANC-1 and SKOV-3 cells were seeded in 96-well plates, 10000 cells/well, and the 96-well plates were pre-incubated in an incubator at 37° C. with 5% CO2, 100% relative humidity for 24 hours, to allow the cells to adhere.
(§2) 50 μL of pre-cooled 50% (mass/volume) TCA was added into the time zero control wells for each cell strain to fix the cells. To other wells, 50 μL of various concentrations of compounds were added, and maintained for 48 h, wherein each drug concentration was in triplicate, and there were blank control wells (cell culture medium without cells), drug-free control wells (with no drugs but the same volume of complete medium) and positive drug BSI-201 control wells, and the plates were incubated in an incubator at 37° C. with 5% CO2, full humidity (100% relative humidity) for 48 hours
(§3) 50 μL pre-cooled 50% (mass/volume) TCA was added onto the surface of the culture medium to fix the cells, which was then placed at 4° C. for 1 h. The supernatant was removed and each well was washed with deionized water for 5 times to remove TCA, serum proteins, etc. After dried in the air, about 100 μL enough amount of 0.4% SRB (formulated with 1% acetic acid) was added into each well, and was placed at room temperature for 20 to 30 min. Liquid in each well was discarded and each well was rapidly washed with 1% acetic acid for five times, to remove unbound dye until the unbound dye was completely rinsed clean. After dried in the air until the moisture was invisible, each well was added 200 μL Tris base to dissolve, shaken on a plate oscillator for 5 min or mixed by beating up and down with a pipette tip, and then measured on the multi-function instruction (M5 Detection System, MD Group Ltd.) with a detection wavelength of 515 nm, zero adjusted with 690 nm blank control.
(§4) The dose-response curve was plotted by XL-fit to determine the GI50 value.

[2] = system: human breast cancer cell strain MDA-MB435; test: In vitro SRB tumor cell growth inhibition (GI50); type: cell-based; conditions: Homo sapiens, MDA-MB-435, 48 h, MDA-MB435 cells
Procedure: as §1, §2, §3, §4

[3] = system: human colon cancer cell strain Colo205; test: In vitro SRB tumor cell growth inhibition (GI50); type: cell-based; conditions: Colo 205 cells, 48 h
Procedure: as §1, §2, §3, §4

[4] = system: human colon cancer cell strain HCT-116; test: In vitro SRB tumor cell growth inhibition (GI50); type: cell-based; conditions: HCT-116 cells
Procedure: as §1, §2, §3, §4

human hepatoma HepG 2 = test: In vitro SRB tumor cell growth inhibition (GI50); type: cell-based; conditions: HepG2, HepG 2 cells, 48 h
Procedure: as §1, §2, §3, §4

human leukemia HL-60 = test: In vitro SRB tumor cell growth inhibition (GI50); type: cell-based; conditions: HL-60 cells
Procedure: as §1, §2, §3, §4

human leukemia K562 = test: In vitro SRB tumor cell growth inhibition (GI50); type: cell-based; conditions: K562 cells
Procedure: as §1, §2, §3, §4

[5] = system: human lung cancer cell strain 95D; test: In vitro SRB tumor cell growth inhibition (GI50); type: cell-based; conditions: 48 h, 95D cells
Procedure: as §1, §2, §3, §4

[6] = system: human lung cancer cell strain A549; test: In vitro SRB tumor cell growth inhibition (GI50); type: cell-based; conditions: A549 cells, 48 h
Procedure: as §1, §2, §3, §4

[7] = system: human lung cancer cell strain NCI-460; test: In vitro SRB tumor cell growth inhibition (GI50); type: cell-based; conditions: NCI-460 cells
Procedure: as §1, §2, §3, §4

[8] = system: human ovarian cancer cell strain HO8910; test: In vitro SRB tumor cell growth inhibition (GI50); type: cell-based; conditions: HO-8910, HO8910 cells, 48 h
Procedure: as §1, §2, §3, §4

[9] = system: human ovarian cancer cell strain OVCAR-8; test: In vitro SRB tumor cell growth inhibition (GI50); type: cell-based; conditions: OVCAR-8 cells
Procedure: as §1, §2, §3, §4

[10] = system: human ovarian cancer cell strain SKOV-3; test: In vitro SRB tumor cell growth inhibition (GI50); type: cell-based; conditions: SK-OV-3, SKOV-3 cells, 48 h
Procedure: as §1, §2, §3, §4

[11] = system: human pancreatic cancer PANC-1; test: In vitro SRB tumor cell growth inhibition (GI50); type: cell-based; conditions: PANC-1 cells
Procedure: as §1, §2, §3, §4

[12] = system: human prostate cancer BXPC-3; test: In vitro SRB tumor cell growth inhibition (GI50); type: cell-based; conditions: BXPC-3 cells, 48 h
Procedure: as §1, §2, §3, §4

[13] = system: human prostate cancer DU145; test: In vitro SRB tumor cell growth inhibition (GI50); type: cell-based; conditions: DU145 cells
Procedure: as §1, §2, §3, §4

[14] = system: human uterine cancer Hela; test: In vitro SRB tumor cell growth inhibition (GI50); type: cell-based; conditions: 48 h, Hela cells
Procedure: as §1, §2, §3, §4

18 tumor cell strains = test: In vitro efficacy screening, summary over the tumor cell strains; type: cell-based, human; conditions: in vitro screening; for inhibitory effects on tumor cell proliferation (in words): BSI-201 as positive drug
Procedure: as §1, §2, §3, §4

[15] = system: human ovarian cancer cell strain OVCAR-5; test: In vitro SRB tumor cell growth inhibition (GI50); type: cell-based; conditions: OVCAR-5 cells, 48 h
Procedure: as §1, §2, §3, §4

GI50 ([1]; Homo sapiens, MCF7, 48 h) [µM]	GI50 [2] [µM]	GI50 [3] [µM]	GI50 ([4]; Homo sapiens, HCT-116, 48 h) [µM]	GI50 (human hepatoma HepG 2) [µM]	GI50 (human leukemia HL-60; Homo sapiens, HL-60, 48 h) [µM]	GI50 (human leukemia K562; Homo sapiens, K562, 48 h) [µM]	GI50 ([5]; Homo sapiens, 95-D) [µM]	GI50 [6] [µM]	GI50 [8] [µM]	GI50 ([9]; Homo sapiens, OVCAR-8, 48 h) [µM]	GI50 [10] [µM]	GI50 ([11]; Homo sapiens, PANC-1, 48 h) [µM]	GI50 [12] [µM]	GI50 ([13]; Homo sapiens, DU-145, 48 h) [µM]	GI50 ([14]; Homo sapiens, HeLa) [µM]	GI50 [15] [µM]	Compound	GI50 ([7]; Homo sapiens, NCI-460, 48 h) [µM]	efficacy in inhibition of tumor cell proliferation, graded in words against I-1 (18 tumor cell strains)	inhibitory effects on tumor cell proliferation (in words) (18 tumor cell strains)	further results
21.5	14.5	10.9	8.62	7.12	2.47	8.03	25.8	30.1	10.2	–	9.77	24.3	10.2	6.17	10.1	35.6	C#Cc1ccc(C(=O)N2CCN(C)CC2)cc1[N+](=O)[O-] [Compound I-24, (4-ethynyl-3-nitrophenyl)(4-methylpiperazin-1-yl)ketone]	31.1	slightly lower than that of I-1	have inhibitory effects on tumor cell proliferation	GI50 ([9]; 48 h): 8.92 µM
5.97	3.06	–	10.3	–	9.27	15.3	10.9	–	–	10.3	–	18.1	–	5.84	14	–	C#Cc1ccc(C(=O)N2CCNCC2)cc1[N+](=O)[O-].Cl [Compound I-30, (4-ethynyl-3-nitrophenyl)(piperazin-1-yl)ketone hydrochloride]	19.5	slightly lower than that of I-1	have inhibitory effects on tumor cell proliferation	–
–	–	–	–	–	–	–	–	130	–	–	105	–	–	–	–	–	CC#Cc1ccc(C(=O)NC)cc1[N+](=O)[O-] [Compound I-26, N-methyl-4-(1-propynyl)-3-nitrobenzamide]	–	–	have inhibitory effects on tumor cell proliferation	–

Second part, the compound before the results:

Compound	GI50 ([1]; Homo sapiens, MCF7, 48 h) [µM]	GI50 [2] [µM]	GI50 [3] [µM]	GI50 ([4]; Homo sapiens, HCT-116, 48 h) [µM]	GI50 (human hepatoma HepG 2) [µM]	GI50 (human leukemia HL-60; Homo sapiens, HL-60, 48 h) [µM]	GI50 (human leukemia K562; Homo sapiens, K562, 48 h) [µM]	GI50 ([5]; Homo sapiens, 95-D) [µM]	GI50 [6] [µM]	GI50 [8] [µM]	GI50 ([9]; Homo sapiens, OVCAR-8, 48 h) [µM]	GI50 [10] [µM]	GI50 ([11]; Homo sapiens, PANC-1, 48 h) [µM]	GI50 [12] [µM]	GI50 ([13]; Homo sapiens, DU-145, 48 h) [µM]	GI50 ([14]; Homo sapiens, HeLa) [µM]	GI50 [15] [µM]	GI50 ([7]; Homo sapiens, NCI-460, 48 h) [µM]	efficacy in inhibition of tumor cell proliferation, graded in words against I-1 (18 tumor cell strains)	inhibitory effects on tumor cell proliferation (in words) (18 tumor cell strains)	further results
C#Cc1ccc(C(=O)NC(=O)OCC)cc1[N+](=O)[O-] [Compound I-3, N-ethoxycarbonyl-4-ethynyl-3-nitrobenzamide]	6.81	4.16	4.32	5.6	12	3.2	7.03	4.38	25	4.03	16.3	15	2.48	7.5	3.79	9.9	–	37.3	slightly lower than that of I-1	have inhibitory effects on tumor cell proliferation	–
C#Cc1ccc(C(=O)NC(=O)OCC(C)C)cc1[N+](=O)[O-] [Compound I-7, N-isobutoxycarbonyl-4-ethynyl-3-nitrobenzamide]	–	9.67	3.15	–	–	–	10.1	–	–	–	–	–	–	–	–	–	–	–	good effects on inhibition of tumor cell proliferation	have inhibitory effects on tumor cell proliferation	–
C#Cc1ccc(C(=O)NC(=O)OC(C)C)cc1[N+](=O)[O-] [Compound I-6, N-isopropoxycarbonyl-4-ethynyl-3-nitrobenzamide]	–	–	9.09	–	–	–	20.2	–	–	–	–	–	–	–	–	–	–	–	good effects on inhibition of tumor cell proliferation	have inhibitory effects on tumor cell proliferation	–
C#Cc1ccc(C(=O)N2CCNCC2)cc1[N+](=O)[O-] [Compound I-23, (4-ethynyl-3-nitrophenyl)(piperazin-1-yl)ketone]	–	–	–	–	–	–	–	–	56.8	–	–	31.3	–	–	–	–	–	–	slightly lower than that of I-1	have inhibitory effects on tumor cell proliferation	GI50 ([1]; 48 h): 9.24 µM; GI50 ([4]; 48 h): 12.4 µM; GI50 (human leukemia HL-60; 48 h): 12.3 µM; GI50 (human leukemia K562; 48 h): 16.2 µM; GI50 [5]: 10.9 µM; GI50 ([7]; 48 h): 25.6 µM; GI50 ([11]; 48 h): 23.8 µM; GI50 ([13]; 48 h): 3.44 µM; GI50 [14]: 11.2 µM
C#Cc1ccc(C(=O)N2CCCC2)cc1[N+](=O)[O-] [Compound I-20, (4-ethynyl-3-nitrophenyl)(pyrrolidin-1-yl)ketone]	20.6	8.49	2.61	9.99	5.54	2.24	4.35	15.1	17.3	4.85	4.01	9.91	7.64	3.35	4.99	8.98	20.3	19.9	slightly lower than that of I-1	have inhibitory effects on tumor cell proliferation	–
C#Cc1ccc(C(=O)NC(=O)OC)cc1[N+](=O)[O-] [Compound I-2, N-methoxycarbonyl-4-ethynyl-3-nitrobenzamide]	2.08	11.7	7.03	–	11.3	2.02	2.8	3.62	8.04	3.44	14.1	3.81	13.7	7.42	3.31	7.1	4.24	33.8	slightly lower than that of I-1	have inhibitory effects on tumor cell proliferation	–
